The Ki is a measure of affinity in units of concentration, obtained from inhibition or displacement.

SMILES strings stand for the structures.

Our source for the Ki values is patent US7772252B2, “Heterocyclic substituted carbonyl derivatives and their use as dopamine D3 receptor ligands” (Aventis Pharmaceuticals Inc., priority 2001, dated 2010).

T1 sequence (P35462 whole entry): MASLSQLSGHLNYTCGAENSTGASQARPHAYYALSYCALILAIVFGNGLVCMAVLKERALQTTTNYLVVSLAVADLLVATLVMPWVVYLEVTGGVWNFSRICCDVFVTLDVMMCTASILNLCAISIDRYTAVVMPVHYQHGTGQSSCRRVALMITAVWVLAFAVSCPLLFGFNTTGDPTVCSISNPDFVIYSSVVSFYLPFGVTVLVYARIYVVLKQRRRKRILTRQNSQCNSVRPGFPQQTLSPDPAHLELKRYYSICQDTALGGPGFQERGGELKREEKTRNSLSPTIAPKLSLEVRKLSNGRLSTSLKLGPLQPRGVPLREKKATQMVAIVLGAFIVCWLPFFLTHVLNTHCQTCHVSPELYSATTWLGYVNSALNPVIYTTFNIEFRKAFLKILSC

The assay addresses T1, cloned human dopamine D3 receptors (Homo sapiens, UniProt P35462).
T1 construct: expressed in transfected cells; membrane homogenate
The experiment in a line: [N-Methyl-3H]Spiroperidol binding to cloned human dopamine D3 receptors. Particulars: read-out: D3 Ki. The procedure, abridged:
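Stably transfected CHO cells expressing cloned human D3 receptor were used as membranes homogenized in 10% DMSO. Ligand was [N-methyl-3H]spiroperidol displacement.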
Regarding `Cc1ccc(CN2CCC(NC(=O)C3CC3CN3CCC(c4noc5ccsc45)CC3)CC2)cc1` (racemic) [compound 831992], the Ki turned out to be 4.81 nM.

Consider `O=C(NC1CCN(Cc2ccc(F)cc2)CC1)C1CC1CN1CCC(c2noc3ccsc23)CC1` (racemic) [compound 831993], for which the inhibitory constant (Ki) came to 2.51 nM.

`O=C(NC1CCN(Cc2cccc(F)c2)CC1)C1CC1CN1CCC(c2noc3ccsc23)CC1` (racemic) [compound 831994]: the Ki was determined as 2.68 nM.

As for `O=C(NC1CCN(Cc2cccc(Cl)c2)CC1)C1CC1CN1CCC(c2noc3ccsc23)CC1` (racemic) [compound 831995], the Ki was 4.73 nM.

With `O=C(NC1CCN(Cc2ccccc2Cl)CC1)C1CC1CN1CCC(c2noc3ccsc23)CC1` (racemic) [compound 831996], the Ki stood at 7.97 nM.

Take `O=C(NC1CCN(Cc2ccc(Cl)cc2)CC1)C1CC1CN1CCC(c2noc3ccsc23)CC1` (racemic) [compound 831997]: the Ki was found to be 3.55 nM.

As to `O=C(NC1CCN(Cc2ccc(Cl)c(Cl)c2)CC1)C1CC1CN1CCC(c2noc3ccsc23)CC1` (racemic) [compound 831998], the inhibition constant (Ki) is 7.46 nM.

As for `O=C(C1CC1CN1CCC(c2noc3ccsc23)CC1)N1CCN(Cc2ccncc2)CC1` (racemic) [compound 831999], the inhibition constant Ki is 473 nM.

Consider `O=C(C1CC1CN1CCC(c2noc3ccsc23)CC1)N1CCN(CCc2ccncc2)CC1` (racemic) [compound 832000], for which the Ki turned out to be 79.6 nM.

On to `O=C(NCCS(=O)(=O)c1cccc2cnccc12)C1CC1CN1CCC(c2noc3ccsc23)CC1` (racemic) [compound 832044], for which the Ki stood at 657 nM.

On to `CC(C)(C)c1ccc(CCNC(=O)C2CC2CN2CCC(c3noc4ccsc34)CC2)cc1` (racemic) [compound 832046], for which the inhibitory constant (Ki) is 35.5 nM.

In the case of `O=C(NCCc1cccc(C(F)(F)F)c1)C1CC1CN1CCC(c2noc3ccsc23)CC1` (racemic) [compound 832047], the Ki amounted to 25.8 nM.

On to `O=C(C1CC1CN1CCC(c2noc3ccsc23)CC1)N1CCN(CCc2cccs2)CC1` (racemic) [compound 832049], for which the inhibition constant (Ki) was found to be 6.54 nM.

Take `O=C(C1COc2ccccc2O1)N1CCN(C(=O)C2CC2CN2CCC(c3noc4ccsc34)CC2)CC1` (racemic) [compound 832055]: the Ki came out at 112 nM.

With `O=C(C1CC1CN1CCC(c2noc3ccsc23)CC1)N1CCN(CCc2ccccc2)CC1` (racemic) [compound 832057], the inhibitory constant (Ki) worked out at 21.7 nM.

As to `O=C(C1CC1CN1CCC(c2noc3ccsc23)CC1)N1CCN(c2ccc(OCc3ccccc3)cc2)CC1` (racemic) [compound 832059], the Ki is 4.13 nM.

Regarding `O=C(C1CC1CN1CCC(c2noc3ccsc23)CC1)N1CCN(Cc2ccccc2)CC1` (racemic) [compound 832153], the Ki turned out to be 30.7 nM.

For the compound `Cc1ccc(CN2CCN(C(=O)C3CC3CN3CCC(c4noc5ccsc45)CC3)CC2)cc1` (racemic) [compound 832154], the inhibition constant Ki was 21.9 nM.

Take `COc1ccc(CN2CCN(C(=O)C3CC3CN3CCC(c4noc5ccsc45)CC3)CC2)cc1` (racemic) [compound 832155]: the Ki was found to be 0.434 nM.

`O=C(C1CC1CN1CCC(c2noc3ccsc23)CC1)N1CCN(Cc2ccc(Cl)cc2)CC1` (racemic) [compound 832156]: the inhibitory constant (Ki) came out at 0.315 nM.

`CC(C)(C)c1ccc(CN2CCN(C(=O)C3CC3CN3CCC(c4noc5ccsc45)CC3)CC2)cc1` (racemic) [compound 832157]: the Ki was determined as 0.226 nM.

Regarding `Cc1cccc(CN2CCN(C(=O)C3CC3CN3CCC(c4noc5ccsc45)CC3)CC2)c1` (racemic) [compound 832158], the inhibition constant (Ki) amounted to 0.37 nM.

Consider `O=C(C1CC1CN1CCC(c2noc3ccsc23)CC1)N1CCN(Cc2ccc(F)cc2)CC1` (racemic) [compound 832164], for which the Ki turned out to be 6.6 nM.

In the case of `O=C(C1CC1CN1CCC(c2noc3ccsc23)CC1)N1CCN(Cc2ccc3c(c2)OCO3)CC1` (racemic) [compound 832165], the Ki was determined as 30.1 nM.

As for `O=C(NCCCc1ccn(S(=O)(=O)c2ccccc2)c1)C1CC1CN1CCC(c2noc3ccsc23)CC1` (racemic) [compound 832185], the inhibition constant (Ki) came to 7.87 nM.

As for `COc1ccc(CCNC(=O)C2CC2CN2CCC(c3noc4ccsc34)CC2)cc1OC` (racemic) [compound 832186], the inhibitory constant (Ki) was 16.1 nM.

Turning to `CC1(C)CC(NC(=O)C2CC2CN2CCC(c3noc4ccsc34)CC2)CC(C)(C)N1` (racemic) [compound 832187], the inhibitory constant (Ki) worked out at 19.1 nM.

In the case of `CC(C)N1CCN(C(=O)C2CC2CN2CCC(c3noc4ccsc34)CC2)CC1` (racemic) [compound 832188], the Ki came to 10.1 nM.

On to `C=CCN1CCN(C(=O)C2CC2CN2CCC(c3noc4ccsc34)CC2)CC1` (racemic) [compound 832189], for which the Ki was determined as 58.5 nM.

`COCCN1CCN(C(=O)C2CC2CN2CCC(c3noc4ccsc34)CC2)CC1` (racemic) [compound 832190]: the inhibition constant (Ki) is 94.6 nM.

Consider `O=C(NCCC(c1ccccc1)c1ccccc1)C1CC1CN1CCC(c2noc3ccsc23)CC1` (racemic) [compound 832191], for which the inhibition constant (Ki) stood at 8.06 nM.

Regarding `O=C(NCCCc1cc[nH]c1)C1CC1CN1CCC(c2noc3ccsc23)CC1` (racemic) [compound 832192], the Ki was found to be 7.81 nM.

As to `O=C(C1CC1CN1CCC(c2noc3ccsc23)CC1)N1CCC(n2ccnc2)CC1` (racemic) [compound 832193], the inhibitory constant (Ki) stood at 13.1 nM.

Take `Cc1cc(C)c(CN2CCN(C(=O)C3CC3CN3CCC(c4noc5ccsc45)CC3)CC2)c(C)c1` (racemic) [compound 832194]: the inhibitory constant (Ki) is 23 nM.

For `O=C(C1CC1CN1CCC(c2noc3ccsc23)CC1)N1CCN(CC2CCCCC2)CC1` (racemic) [compound 832195], the Ki came to 22.8 nM.

`O=C(C1CC1CN1CCC(c2noc3ccsc23)CC1)N1CCN(C2CCCC2)CC1` (racemic) [compound 832196]: the inhibition constant Ki stood at 22.9 nM.

As for `O=C(C1CC1CN1CCC(c2noc3ccsc23)CC1)N1CCN(CCCc2ccccc2)CC1` (racemic) [compound 832197], the Ki is 17.1 nM.

`O=C(C1CC1CN1CCC(c2noc3ccsc23)CC1)N1CCC(CCN2CCCC2)CC1` (racemic) [compound 832198]: the Ki stood at 5.81 nM.

For `O=C(NC1CCN(c2ncccc2C(F)(F)F)C1)C1CC1CN1CCC(c2noc3ccsc23)CC1` (racemic) [compound 832199], the Ki came out at 18.7 nM.

Take `O=C(NC1CCN(Cc2cccc(F)c2F)CC1)C1CC1CN1CCC(c2noc3ccsc23)CC1` (racemic) [compound 832340]: the inhibition constant (Ki) amounted to 11.5 nM.

On to `O=C(NC1CCN(CC2CC2)CC1)C1CC1CN1CCC(c2noc3ccsc23)CC1` (racemic) [compound 832341], for which the Ki stood at 2.63 nM.

In the case of `O=C(NC1CCN(Cc2cc(F)cc(F)c2)CC1)C1CC1CN1CCC(c2noc3ccsc23)CC1` (racemic) [compound 832343], the inhibitory constant (Ki) was found to be 0.718 nM.

Regarding `O=C(NC1CCN(Cc2ccc(F)cc2F)CC1)C1CC1CN1CCC(c2noc3ccsc23)CC1` (racemic) [compound 832344], the Ki was determined as 2.76 nM.

`O=C(NC1CCN(Cc2cc(F)ccc2Cl)CC1)C1CC1CN1CCC(c2noc3ccsc23)CC1` (racemic) [compound 832346]: the inhibitory constant (Ki) was 12.9 nM.

On to `O=C(NC1CCN(Cc2cc(Cl)ccc2Cl)CC1)C1CC1CN1CCC(c2noc3ccsc23)CC1` (racemic) [compound 832347], for which the inhibition constant Ki worked out at 1.88 nM.

On to `Cc1cccc(CN2CCC(NC(=O)C3CC3CN3CCC(c4noc5ccsc45)CC3)CC2)c1` (racemic) [compound 832348], for which the inhibitory constant (Ki) stood at 0.465 nM.

As to `CC(C)(C)OC(=O)N1CCC(NC(=O)C2CC2CN2CCC(c3noc4ccsc34)CC2)CC1` (racemic) [compound 832391], the Ki was 77.9 nM.

In the case of `O=C(NC1CCN(Cc2ncc[nH]2)CC1)C1CC1CN1CCC(c2noc3ccsc23)CC1` (racemic) [compound 832392], the inhibitory constant (Ki) was determined as 2.29 nM.

For the compound `O=C(NC1CCN(Cc2ccncc2)CC1)C1CC1CN1CCC(c2noc3ccsc23)CC1` (racemic) [compound 832393], the Ki was determined as 8.44 nM.

With `O=C(NC1CCN(Cc2cccnc2)CC1)C1CC1CN1CCC(c2noc3ccsc23)CC1` (racemic) [compound 832394], the Ki was 8.32 nM.

In the case of `O=C(NCCSc1ccc(Cl)cc1)C1CC1CN1CCC(c2noc3ccsc23)CC1` (racemic) [compound 832397], the Ki was determined as 51.9 nM.

For the compound `O=C(NC1CCN(C(=O)c2ccc(Cl)c(Cl)c2)CC1)C1CC1CN1CCC(c2noc3ccsc23)CC1` (racemic) [compound 832464], the Ki came to 12.8 nM.

In the case of `O=C(NC1CCN(C(=O)c2ccc(Cl)s2)CC1)C1CC1CN1CCC(c2noc3ccsc23)CC1` (racemic) [compound 832487], the Ki turned out to be 66.1 nM.

For the compound `O=C(NC1CCN(C(=O)c2cccc(Cl)c2)CC1)C1CC1CN1CCC(c2noc3ccsc23)CC1` (racemic) [compound 832488], the Ki was determined as 39.5 nM.

For the compound `CCN1CCN(C(=O)N2CCC(NC(=O)C3CC3CN3CCC(c4noc5ccsc45)CC3)CC2)C(=O)C1=O` (racemic) [compound 832489], the inhibition constant Ki was 95 nM.

Turning to `O=C(NC1CCN(C(=O)c2ccc(Cl)nc2)CC1)C1CC1CN1CCC(c2noc3ccsc23)CC1` (racemic) [compound 832505], the Ki was determined as 40.6 nM.

On to `CCN1CCC(NC(=O)C2CC2CN2CCC(c3noc4ccsc34)CC2)CC1` (racemic) [compound 833372], for which the Ki stood at 1.04 nM.

Consider `CN1CCCC1CCNC(=O)[C@@H]1C[C@H]1CN1CCC(c2noc3ccsc23)CC1` (single isomer, unassigned) [compound 832513], for which the Ki was 55.4 nM.

`C[C@H]1CC[C@H](NC(=O)C2(CCN3CCC(c4noc5ccsc45)CC3)CC2)CC1` [832241A]: the inhibition constant (Ki) came to 51.8 nM.

On to `CC[C@H]1CC[C@H](NC(=O)C2(CCN3CCC(c4noc5ccsc45)CC3)CC2)CC1` [832242A], for which the inhibition constant Ki is 436 nM.

Consider `CC[C@H]1CC[C@H](NC(=O)[C@@H]2C[C@H]2CN2CCN(c3nn(C)c4ccc(OC)cc34)CC2)CC1` [832747ES], for which the inhibition constant (Ki) was 1.05 nM.

With `C[C@H]1CC[C@H](N2CC(CN3CCN(c4noc5ccsc45)CC3)CC2=O)CC1` (stereo partly drawn) [832831DA], the Ki was 1150 nM.

On to `Cn1nc(N2CCN(C[C@@H]3C[C@H]3C(=O)N[C@H]3CC[C@H](O)CC3)CC2)c2sccc21` [8319560A], for which the Ki is 5.91 nM.
